Laboratory results as given in ChEMBL document CHEMBL5584218, “Design and synthesis of unique morphinan-type molecules: Their application to the search for the unexplored binding domain between opioid receptors and morphinan ligands” (Bioorg Med Chem Lett, 2024).

Legend:
Type in all cases: cell membranes
[1] = target: Delta-type opioid receptor (Homo sapiens, UniProt P41143); assay: Displacement of [3H]DPDPE from human DOR extracted from HEK293 cell membrane assessed as inhibition constant
[2] = target: Kappa-type opioid receptor (Homo sapiens, UniProt P41145); assay: Displacement of [3H]U-69593 from human KOR extracted from HEK293 cell membrane assessed as inhibition constant
Mu-type opioid receptor = Mu-type opioid receptor (Homo sapiens, UniProt P35372); assay: Displacement of [3H]-DAMGO from human MOR extracted from HEK293 cell membrane assessed as inhibition constant
Sequence of Mu-type opioid receptor (P35372 whole entry): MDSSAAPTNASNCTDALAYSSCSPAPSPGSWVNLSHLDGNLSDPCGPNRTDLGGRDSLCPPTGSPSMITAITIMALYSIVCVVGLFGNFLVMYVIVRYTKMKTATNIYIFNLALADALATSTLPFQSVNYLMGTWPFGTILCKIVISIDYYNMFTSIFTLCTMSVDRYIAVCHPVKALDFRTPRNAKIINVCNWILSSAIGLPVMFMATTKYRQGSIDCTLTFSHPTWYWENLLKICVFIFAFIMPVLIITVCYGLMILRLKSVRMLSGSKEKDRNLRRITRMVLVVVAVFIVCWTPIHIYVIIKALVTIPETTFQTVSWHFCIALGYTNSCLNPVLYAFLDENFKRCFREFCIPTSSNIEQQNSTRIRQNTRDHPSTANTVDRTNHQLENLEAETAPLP

Sequence of Kappa-type opioid receptor (P41145 whole entry): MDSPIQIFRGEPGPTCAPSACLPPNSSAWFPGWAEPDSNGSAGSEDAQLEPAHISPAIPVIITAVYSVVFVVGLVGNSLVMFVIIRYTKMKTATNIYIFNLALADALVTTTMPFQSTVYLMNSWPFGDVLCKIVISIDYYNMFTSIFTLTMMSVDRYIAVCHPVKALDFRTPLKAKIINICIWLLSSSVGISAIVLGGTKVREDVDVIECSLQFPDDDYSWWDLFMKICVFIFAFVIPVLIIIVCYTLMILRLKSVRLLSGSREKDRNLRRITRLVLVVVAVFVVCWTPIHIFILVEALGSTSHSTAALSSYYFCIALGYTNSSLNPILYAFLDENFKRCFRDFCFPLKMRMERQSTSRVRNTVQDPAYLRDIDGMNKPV
Sequence of Delta-type opioid receptor (P41143 whole entry): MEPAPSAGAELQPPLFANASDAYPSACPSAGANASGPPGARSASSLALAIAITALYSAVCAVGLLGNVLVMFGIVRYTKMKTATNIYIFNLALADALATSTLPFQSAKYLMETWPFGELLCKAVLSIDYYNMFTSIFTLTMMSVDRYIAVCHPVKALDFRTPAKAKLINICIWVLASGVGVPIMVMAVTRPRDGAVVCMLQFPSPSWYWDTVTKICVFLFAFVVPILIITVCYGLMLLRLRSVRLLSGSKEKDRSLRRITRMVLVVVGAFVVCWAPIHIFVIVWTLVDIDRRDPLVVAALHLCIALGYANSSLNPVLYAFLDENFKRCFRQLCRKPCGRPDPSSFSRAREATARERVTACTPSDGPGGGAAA

Row | Compound | Ki [1] [nM] | Ki [2] [nM] | Ki (Mu-type opioid receptor) [nM]
1 | N[C@@]12CCC(=O)C3Oc4c(O)ccc5c4[C@@]31CCN(CC1CC1)C2C5 (some centres undefined) | 19 | 1.8 | 0.82
2 | CC(=O)C(C(C)=O)=C1N(CC2CC2)C2Cc3ccc(O)c4c3[C@]35CCN1[C@]23CCC(=O)C5O4 (some centres undefined) | 1300 | 1400 | 690
3 | CC(=O)/C=C1/NC2Cc3ccc(O)c4c3[C@]35CCN1[C@]23CCC(=O)C5O4 (some centres undefined) | > 10000 | 310 | 380
4 | CN1CN2CC[C@]34c5c6ccc(O)c5OC3C(=O)CC[C@]24C1C6 (some centres undefined) | 160 | 310 | 150
5 | O=C1CC[C@@]23C4Cc5ccc(O)c6c5[C@@]2(CCN3CN4CCc2ccccc2)C1O6 (some centres undefined) | 25 | 5.2 | 22
6 | C[C@H](O)C[C@H]1NC2Cc3ccc(O)c4c3[C@]35CCN1[C@]23CCC(=O)C5O4 (some centres undefined) | 320 | 120 | 57
7 | O=C1CC[C@]23C4[C@@H](CN(CC5CC5)C[N@@]42)[C@]32c3cccc(O)c3OC12 (some centres undefined) | 64 | 21 | 20
8 | C[C@@H](O)C[C@H]1NC2Cc3ccc(O)c4c3[C@]35CCN1[C@]23CCC(=O)C5O4 (some centres undefined) | 620 | 390 | 69
